One may read the pKd as the negative decadic logarithm of the Kd, by convention in mol/L.

pKd: −log10 of the molar value.

The values that follow come from patent US10835623B2, “Manganese-based chelate conjugates for molecular MR imaging” (The General Hospital Corporation, priority 2015, dated 2020).

For data set [1], the system named is plasma proteins such as serum albumin. Description: Relaxivity in human blood plasma. To be noted: 1.41 T, 37° C. The class given is physicochemical. The method, then:
(§1) NMR spectra were recorded on a 500 MHz Varian spectrometer at 25° C. unless otherwise noted. Chemical shifts are reported in δ (ppm). For ^1H and ^13C NMR spectra, the residual solvent peaks were used as internal reference except for ^13C NMR recorded in D2O where dioxane was used as the internal references (Fulmer, Organometallics 2010, 29, 2176.).^1 Relaxivity measurements were performed on a Bruker mq60 Minispec, 1.41 T and 37° C. Longitudinal (T1) relaxation was acquired via an inversion recovery experiment using 10 inversion times of duration ranging between 0.05×T1 and 5×T1; tranverse […] relaxation was measured using a […] spin-echo experiment. Relaxivity (r1,2) was determined from the slope of a plot of 1/T1,2 vs. [Mn] for at least 4 concentrations. The transverse (T2) relaxation times of ^17O were acquired at 11.7 T from the full-width at half-height of the H2^17O signal (Gale, Carvan, J. Am. Chem. Soc. 2013, 135, 18600). ^17O T2 relaxivity (r2^O) was calculated by dividing the Mn-imparted increase in 1/T2 relative to neat H2O (pH 3) by the Mn concentration in mM. 0.7-1.0 mL NMR samples were enriched with a 10 μL of 18% H2^17O.
Incorporation of lipophilic functionality into the chelate-metal complexes promotes binding to plasma proteins such as serum albumin. This binding provides a change in relaxivity measured in human blood plasma compared to that measured in PBS. In most cases, a large (40-170%) increase in relaxivity (r1 or r2) is observed (Table 1).

Data set [2] can be described thus: Relaxivity in PBS / Tris buffer / water (Bruker mq60 Minispec). It is filed as physicochemical. To be noted: 1.41 T, 37° C. As for the experimental part:
as §1

For data set [3] the following is noted: read-out: Kd for HA; cited from earlier work.

For the substance “Na[Mn(PyC3A-3-ethyl ester)] [Compound 10]”, in data set [1], the “r1 in human blood plasma” value was 5.8 mM⁻¹ s⁻¹. Also, the “r1 in PBS” value in data set [2] came out at 2.7 mM⁻¹ s⁻¹.

For the substance GAHWQFNALTVR, the pKd in data set [3] is about 6.00.

In the case of “Na[Mn(PyC3A-4-methoxy-3.5-dimethyl) [Compound 13]”, the “r1 in human blood plasma” value in data set [1] was 3.5 mM⁻¹ s⁻¹. Further, the “r1 in PBS” value in data set [2] amounted to 2.5 mM⁻¹ s⁻¹.

“Na[Mn(PyC3A-5-hydroxymethyl)] [Compound 7]”: the “r1 in human blood plasma” value in data set [1] amounted to 5.7 mM⁻¹ s⁻¹. In data set [2], the “r1 in PBS” value was 2.1 mM⁻¹ s⁻¹.

Na[Mn(PyC3A-5-hydrazide)] [Compound 25]: the “r1 in human blood plasma” value in data set [1] turned out to be 5.2 mM⁻¹ s⁻¹. For the same substance, the “r1 in PBS” value in data set [2] was determined as 3.4 mM⁻¹ s⁻¹.

With “Na[Mn(PyC3A-5-methyl ester)] [Compound 4]”, in data set [1], the “r1 in human blood plasma” value was found to be 2.1 mM⁻¹ s⁻¹. Moreover, the “r1 in PBS” value in data set [2] was 3.1 mM⁻¹ s⁻¹.
